Measurements from US12122761B2, “2-azaspiro[3.4]octane derivatives as M4 agonists” (NOVARTIS AG, priority 2019, dated 2024).
pEC50: −log10 of the molar value.

How the values were obtained:
[1] = molecular target: T1, human cloned CHRM2 receptor (M2_CHO cells) (Homo sapiens, UniProt P08172); test: CHRM2 Ca++ Flux Assay (agonist mode, FDSS 7000EX); assay type: cell-based; conditions: for Emax: Percent Activity measured to EC100 of Carbachol, read-out: M2 FDSS PA; for pEC50: agonist mode, geometric mean if tested more than once, read-out: M2 FDSS EC50
T1 construct: expressed in transfected cells; host or cells: CHO-K1
T1 sequence (P08172 1-466): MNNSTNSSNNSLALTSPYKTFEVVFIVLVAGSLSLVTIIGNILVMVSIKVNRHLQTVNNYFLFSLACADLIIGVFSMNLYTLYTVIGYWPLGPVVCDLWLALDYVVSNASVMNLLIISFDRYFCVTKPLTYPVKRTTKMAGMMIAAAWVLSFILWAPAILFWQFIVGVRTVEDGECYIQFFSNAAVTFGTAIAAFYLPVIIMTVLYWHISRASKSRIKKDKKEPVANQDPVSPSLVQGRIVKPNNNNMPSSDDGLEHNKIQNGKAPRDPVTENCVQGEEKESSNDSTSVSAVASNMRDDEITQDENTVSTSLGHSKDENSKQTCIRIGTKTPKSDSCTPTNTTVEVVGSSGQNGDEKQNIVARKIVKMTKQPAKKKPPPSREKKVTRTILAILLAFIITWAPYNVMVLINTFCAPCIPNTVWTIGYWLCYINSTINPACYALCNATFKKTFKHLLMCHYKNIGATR
Summary of the method: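 Agonist-mode Ca++ flux in CHO-K1 cells stably expressing human CHRM2, dye-loaded, then held 60 min at room temperature in buffer with 20 μM ATP before compound addition; traces read over 3 minutes. Four-parameter fit of triplicate wells; percent activity relative to Carbachol EC100.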

[2] = molecular target: T2, human cloned CHRM3 receptor (M3_CHO cells) (Homo sapiens, UniProt P20309); test: CHRM3 Ca++ Flux Assay (agonist mode, FDSS 7000EX); assay type: cell-based; conditions: for Emax: Percent Activity measured to EC100 of Carbachol, read-out: M3 FDSS PA; for pEC50: agonist mode, geometric mean if tested more than once, read-out: M3 FDSS EC50
T2 construct: expressed in transfected cells; host or cells: CHO-K1
Summary of the method: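 Agonist responses are measured as calcium mobilization in CHO-K1 cells expressing human M3 or M5, tested over an 11-point dose range in triplicate. Percent activity is normalised to carbachol at EC100.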

T2 sequence (P20309 whole entry): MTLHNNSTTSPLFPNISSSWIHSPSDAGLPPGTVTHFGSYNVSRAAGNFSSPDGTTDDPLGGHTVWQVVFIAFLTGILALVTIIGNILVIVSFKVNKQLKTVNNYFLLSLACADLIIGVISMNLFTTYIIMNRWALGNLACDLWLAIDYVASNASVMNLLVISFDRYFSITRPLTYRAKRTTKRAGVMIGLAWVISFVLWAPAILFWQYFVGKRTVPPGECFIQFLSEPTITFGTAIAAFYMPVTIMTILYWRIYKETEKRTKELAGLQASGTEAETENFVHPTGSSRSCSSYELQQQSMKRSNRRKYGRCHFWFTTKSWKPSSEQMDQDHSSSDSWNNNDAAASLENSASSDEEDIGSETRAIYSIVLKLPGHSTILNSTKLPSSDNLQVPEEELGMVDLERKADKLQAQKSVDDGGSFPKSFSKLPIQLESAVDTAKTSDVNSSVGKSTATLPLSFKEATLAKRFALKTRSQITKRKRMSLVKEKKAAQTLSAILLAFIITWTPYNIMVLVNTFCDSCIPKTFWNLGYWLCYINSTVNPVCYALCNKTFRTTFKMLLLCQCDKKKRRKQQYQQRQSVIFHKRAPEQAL

| SMILES | Emax [1] [%] | Emax [2] [%] | pEC50 [2] | pEC50 [1] |
| --- | --- | --- | --- | --- |
| CC(C)(O)CCOc1ccccc1C1CCN([C@@H]2CCC3(C2)CN(C(=O)C2COC2)C3)CC1 [Example 7CC, (R)-(6-(4-(2-(3-hydroxy-3-methylbutoxy)phenyl)piperidin-1-yl)-2-azaspiro[3.4]octan-2-yl)(oxetan-3-yl)methanone] | 0 | 0 | < 4.60 | – |
| c1ccc(C2CCN([C@@H]3CCC4(C3)CN(c3nnco3)C4)CC2)c(C2CCOCC2)c1 [Example 2H, (R)-2-(6-(4-(2-(tetrahydro-2H-pyran-4-yl)phenyl)piperidin-1-yl)-2-azaspiro[3.4]octan-2-yl)-1,3,4-oxadiazole] | 32 | 0 | < 4.60 | 6.34 |
| Fc1cccc(C2CCN([C@@H]3CCC4(C3)CN(c3cncnc3)C4)CC2)c1OC1COC1 [Example 5W, (R)-6-(4-(3-fluoro-2-(oxetan-3-yloxy)phenyl)piperidin-1-yl)-2-(pyrimidin-5-yl)-2-azaspiro[3.4]octane] | 16 | 0 | < 4.60 | 7.24 |
| CC(C)(O)CCOc1ccccc1C1CCN([C@@H]2CCC3(C2)CN(c2nncs2)C3)CC1 [Example 3H, (R)-4-(2-(1-(2-(1,3,4-thiadiazol-2-yl)-2-azaspiro[3.4]octan-6-yl)piperidin-4-yl)phenoxy)-2-methylbutan-2-ol] | 0 | 0 | < 4.60 | – |
| c1ccc(C2CCN([C@@H]3CCC4(C3)CN(c3nnco3)C4)CC2)c(CC2CCOCC2)c1 [Example 2L, (R)-2-(6-(4-(2-((tetrahydro-2H-pyran-4-yl)methyl)phenyl)piperidin-1-yl)-2-azaspiro[3.4]octan-2-yl)-1,3,4-oxadiazole] | 0 | 0 | < 4.60 | – |
| c1ccc(C2CCN([C@@H]3CCC4(C3)CN(c3nncs3)C4)CC2)c(OCC2CCOCC2)c1 [Example 1I, (R)-2-(6-(4-(2-((tetrahydro-2H-pyran-4-yl)methoxy)phenyl)piperidin-1-yl)-2-azaspiro[3.4]octan-2-yl)-1,3,4-thiadiazole] | 28 | 0 | < 4.60 | 7.04 |
| Fc1ccc(N2CC3(CC[C@@H](N4CCC(c5ccccc5C5CCOCC5)CC4)C3)C2)cn1 [Example 5CC, (R)-2-(6-fluoropyridin-3-yl)-6-(4-(2-(tetrahydro-2H-pyran-4-yl)phenyl)piperidin-1-yl)-2-azaspiro[3.4]octane] | 35 | 0 | < 4.60 | 6.33 |
| c1ccc(C2CCN([C@@H]3CCC4(C3)CN(c3cncnc3)C4)CC2)c(OC2CCOCC2)c1 [Example 1L, (R)-2-(pyrimidin-5-yl)-6-(4-(2-((tetrahydro-2H-pyran-4-yl)oxy)phenyl)piperidin-1-yl)-2-azaspiro[3.4]octane] | 28 | 0 | < 4.60 | 6.67 |
| c1ccc(C2CCN([C@@H]3CCC4(C3)CN(c3nnco3)C4)CC2)c(OCC2CCOCC2)c1 [Example 2G, (R)-2-(6-(4-(2-((tetrahydro-2H-pyran-4-yl)methoxy)phenyl)piperidin-1-yl)-2-azaspiro[3.4]octan-2-yl)-1,3,4-oxadiazole] | 19 | 0 | < 4.60 | 6.87 |
| FC1(COc2ccccc2C2CCN([C@@H]3CCC4(C3)CN(c3nnco3)C4)CC2)CCOCC1 [Example 2D, (R)-2-(6-(4-(2-((4-fluorotetrahydro-2H-pyran-4-yl)methoxy)phenyl)piperidin-1-yl)-2-azaspiro[3.4]octan-2-yl)-1,3,4-oxadiazole] | 8 | 0 | < 4.60 | 7.30 |
| COCCOc1ccccc1C1CCN([C@@H]2CCC3(C2)CN(c2cnc(C)cn2)C3)CC1 [Example 5Y, (R)-6-(4-(2-(2-methoxyethoxy)phenyl)piperidin-1-yl)-2-(5-methylpyrazin-2-yl)-2-azaspiro[3.4]octane] | 0 | 0 | < 4.60 | > 4.59 |
| c1ccc(C2CCN([C@@H]3CCC4(C3)CN(c3nnco3)C4)CC2)c(O[C@@H]2CCOC2)c1 [Example 2B, 2-((R)-6-(4-(2-(((R)-tetrahydrofuran-3-yl)oxy)phenyl)piperidin-1-yl)-2-azaspiro[3.4]octan-2-yl)-1,3,4-oxadiazole] | 32 | 0 | < 4.60 | 7.41 |
| c1ccc(C2CCN([C@@H]3CCC4(C3)CN(c3nncs3)C4)CC2)c(OC[C@H]2COCCO2)c1 [Example 3B, 2-((R)-6-(4-(2-(((R)-1,4-dioxan-2-yl)methoxy)phenyl)piperidin-1-yl)-2-azaspiro[3.4]octan-2-yl)-1,3,4-thiadiazole] | 16 | 0 | < 4.60 | 7.74 |
| c1ccc(C2CCN([C@@H]3CCC4(C3)CN(c3cncnc3)C4)CC2)c(OCC2CCOCC2)c1 [Example 1M, (R)-2-(pyrimidin-5-yl)-6-(4-(2-((tetrahydro-2H-pyran-4-yl)methoxy)phenyl)piperidin-1-yl)-2-azaspiro[3.4]octane] | 30 | 0 | < 4.60 | 6.40 |
| COCCOc1ccccc1C1CCN([C@@H]2CCC3(C2)CN(c2nnco2)C3)CC1 [Example 2C] | 0 | 0 | < 4.60 | – |
| COCCOc1ccccc1C1CCN([C@@H]2CCC3(C2)CN(c2ncns2)C3)CC1 [Example 3J, (R)-5-(6-(4-(2-(2-methoxyethoxy)phenyl)piperidin-1-yl)-2-azaspiro[3.4]octan-2-yl)-1,2,4-thiadiazole] | 0 | 0 | < 4.60 | – |
| c1ccc(C2CCN([C@@H]3CCC4(C3)CN(c3nncs3)C4)CC2)c(OC[C@@H]2COCCO2)c1 [Example 3C, 2-((R)-6-(4-(2-(((S)-1,4-dioxan-2-yl)methoxy)phenyl)piperidin-1-yl)-2-azaspiro[3.4]octan-2-yl)-1,3,4-thiadiazole] | 18 | 0 | < 4.60 | 7.62 |
| CC(C)(O)COc1ccccc1C1CCN([C@@H]2CCC3(C2)CN(c2ncncn2)C3)CC1 [Example 5U, (R)-1-(2-(1-(2-(1,3,5-triazin-2-yl)-2-azaspiro[3.4]octan-6-yl)piperidin-4-yl)phenoxy)-2-methylpropan-2-ol] | 0 | 0 | < 4.60 | – |
| Fc1cccc(C2CCN([C@@H]3CCC4(C3)CN(c3nncs3)C4)CC2)c1OC1COC1 [Example 3E, (R)-2-(6-(4-(3-fluoro-2-(oxetan-3-yloxy)phenyl)piperidin-1-yl)-2-azaspiro[3.4]octan-2-yl)-1,3,4-thiadiazole] | 31 | 0 | < 4.60 | 6.72 |

Other lines, results leading:

| Emax [1] [%] | Emax [2] [%] | pEC50 [2] | pEC50 [1] | SMILES |
| --- | --- | --- | --- | --- |
| 0 | 0 | < 4.60 | – | c1ccc(C2CCN([C@H]3CCC4(C3)CN(c3nnco3)C4)CC2)c(C2CCOCC2)c1 (single isomer, unassigned) [Example 10T] |
| 10 | 0 | – | 7.49 | COc1ccc(F)cc1C1CCN([C@@H]2CCC3(C2)CN(C(=O)C2COC2)C3)CC1 [Example 6A, (R)-(6-(4-(5-fluoro-2-methoxyphenyl)piperidin-1-yl)-2-azaspiro[3.4]octan-2-yl)(oxetan-3-yl)methanone] |
| 22 | 0 | < 4.60 | 7.01 | O=C(C1COC1)N1CC2(CC[C@@H](N3CCC(c4ccccc4OCC(F)F)CC3)C2)C1 [Example 7JJ, (R)-(6-(4-(2-(2,2-difluoroethoxy)phenyl)piperidin-1-yl)-2-azaspiro[3.4]octan-2-yl)(oxetan-3-yl)methanone] |
| 17 | 0 | < 4.60 | 6.33 | O=C(C1COC1)N1CC2(CC[C@@H](N3CCC(c4ccccc4OCCOC4COC4)CC3)C2)C1 [Example 7EE, (R)-oxetan-3-yl(6-(4-(2-(2-(oxetan-3-yloxy)ethoxy)phenyl)piperidin-1-yl)-2-azaspiro[3.4]octan-2-yl)methanone] |
| 0 | 0 | < 4.60 | – | O=C(C1COC1)N1CC2(CC[C@@H](N3CCC(c4ccccc4OC4CCCC4)CC3)C2)C1 [Example 7G, (R)-(6-(4-(2-(cyclopentyloxy)phenyl)piperidin-1-yl)-2-azaspiro[3.4]octan-2-yl)(oxetan-3-yl)methanone] |
| 0 | 0 | < 4.60 | – | O=C(C1COC1)N1CC2(CC[C@@H](N3CCC(c4ccccc4OCCOC(F)(F)F)CC3)C2)C1 [Example 7DD, (R)-oxetan-3-yl(6-(4-(2-(2-(trifluoromethoxy)ethoxy)phenyl)piperidin-1-yl)-2-azaspiro[3.4]octan-2-yl)methanone] |
